# Laboratory results reported in the supplement of paper PMC6045584.
# ± gives the standard deviation of the averaged measurements.
# Key:
# [1] = compound: C[C@@H](Oc1cc(-c2cnn(C3CCNCC3)c2)cnc1N)c1c(Cl)ccc(F)c1Cl; test: surviving fraction relative to DMSO-only wells; higher = less growth inhibition; details: exposure time: 5 days
# Procedure, shortened: (§1)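 Viability was scored with CellTiter-Glo luminescence and normalised to the median of DMSO-only wells as surviving fraction. Beforehand, log-phase tumour cell lines were seeded at 250–500 cells per well in 384-well plates, allowed 24 hours, and exposed continuously for five days to inhibitors at 0.5, 1, 5, 10, 50, 100, 500 and 1000 nM. Only lines whose three screens gave replicate Pearson r >0.7 and median Z' >0.3 were kept.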
# SORAFENIB = compound: CNC(=O)c1cc(Oc2ccc(NC(=O)Nc3ccc(Cl)c(C(F)(F)F)c3)cc2)ccn1 [SORAFENIB]; test: as above; details: exposure time: 5 days
# Procedure, shortened: as §1
Test System,surviving fraction ([1]; 0.5 nM),surviving fraction ([1]; 1 nM),surviving fraction ([1]; 5 nM),surviving fraction ([1]; 10 nM),surviving fraction ([1]; 50 nM),surviving fraction ([1]; 100 nM),surviving fraction ([1]; 1000 nM),surviving fraction (SORAFENIB; 0.5 nM),surviving fraction (SORAFENIB; 5 nM),surviving fraction (SORAFENIB; 10 nM),surviving fraction (SORAFENIB; 50 nM),surviving fraction (SORAFENIB; 100 nM),surviving fraction (SORAFENIB; 500 nM),surviving fraction (SORAFENIB; 1000 nM),surviving fraction ([1]; 500 nM),surviving fraction (SORAFENIB; 1 nM)
HCC1395 BREAST,0.831 ± 0.14,0.74 ± 0.087,0.814 ± 0.074,0.838 ± 0.097,1.01 ± 0.11,1 ± 0.065,1 ± 0.089,1.11 ± 0.057,1.27 ± 0.049,1.16 ± 0.17,1.26 ± 0.034,1.24 ± 0.15,1.18 ± 0.21,1.12 ± 0.048,,
HCC1806 BREAST,0.818 ± 0.034,0.74 ± 0.067,0.87 ± 0.029,,1.06 ± 0.11,0.862 ± 0.018,0.273 ± 0.0078,0.985 ± 0.032,1.03 ± 0.059,0.771 ± 0.66,1.14 ± 0.099,1.05 ± 0.14,1 ± 0.11,0.888 ± 0.081,0.502 ± 0.022,0.78 ± 0.45
HCC1954 BREAST,0.364 ± 0.042,0.353 ± 0.084,0.426 ± 0.06,0.401 ± 0.021,0.472 ± 0.019,0.473 ± 0.036,0.4677 ± 0.0032,1.11 ± 0.15,1.02 ± 0.077,0.93 ± 0.27,1.22 ± 0.11,1.29 ± 0.039,1.3 ± 0.1,1.33 ± 0.14,0.443 ± 0.11,
HCT15 LARGE INTESTINE,0.88 ± 0.058,0.88 ± 0.054,0.895 ± 0.03,,0.959 ± 0.024,,0.165 ± 0.0046,0.955 ± 0.029,0.99 ± 0.026,0.982 ± 0.021,1.09 ± 0.052,1.09 ± 0.064,,1.06 ± 0.035,0.889 ± 0.042,0.989 ± 0.0099
HELA CERVIX,0.969 ± 0.02,,0.948 ± 0.018,0.895 ± 0.072,1.02 ± 0.027,1.06 ± 0.055,0.258 ± 0.015,1.03 ± 0.022,0.986 ± 0.047,0.9492 ± 0.0068,1.1 ± 0.024,1.09 ± 0.062,1.07 ± 0.055,,0.811 ± 0.05,0.982 ± 0.024
HOS BONE,0.934 ± 0.018,0.938 ± 0.019,0.966 ± 0.03,,1.008 ± 0.0042,0.997 ± 0.038,0.499 ± 0.023,1.03 ± 0.043,1.025 ± 0.0095,1.03 ± 0.018,1.09 ± 0.014,,,,0.571 ± 0.029,1.015 ± 0.0025
HOSMNG BONE,0.985 ± 0.018,1 ± 0.02,0.949 ± 0.016,0.949 ± 0.039,0.637 ± 0.066,0.518 ± 0.016,0.17 ± 0.0051,0.994 ± 0.086,0.943 ± 0.092,1 ± 0.14,1.06 ± 0.11,1.05 ± 0.16,1.1 ± 0.049,1.06 ± 0.15,0.262 ± 0.013,0.975 ± 0.14
HSSYII SYNOVIAL,0.85 ± 0.056,0.882 ± 0.039,0.81 ± 0.03,0.861 ± 0.036,0.848 ± 0.021,0.794 ± 0.035,0.122 ± 0.01,1 ± 0.059,0.977 ± 0.038,0.942 ± 0.035,0.947 ± 0.037,1.01 ± 0.024,0.855 ± 0.035,0.779 ± 0.038,0.261 ± 0.0051,0.975 ± 0.026
HT1080 SOFT TISSUE,1 ± 0.018,,1.02 ± 0.011,0.991 ± 0.059,,,0.638 ± 0.047,1.04 ± 0.057,1.04 ± 0.035,1.02 ± 0.014,1.023 ± 0.005,1.01 ± 0.028,1.05 ± 0.09,1.01 ± 0.031,0.953 ± 0.036,1.05 ± 0.036
HU09 BONE,,0.889 ± 0.033,,0.95 ± 0.07,,0.841 ± 0.014,0.197 ± 0.018,0.95 ± 0.061,1.01 ± 0.099,0.95 ± 0.072,0.809 ± 0.061,0.675 ± 0.063,0.512 ± 0.016,0.433 ± 0.02,0.388 ± 0.053,0.951 ± 0.089
HUO3N1 BONE,,,0.971 ± 0.034,,0.974 ± 0.02,0.954 ± 0.029,0.695 ± 0.031,1 ± 0.053,,1 ± 0.036,1.004 ± 0.01,0.941 ± 0.04,0.818 ± 0.029,0.82 ± 0.017,0.842 ± 0.019,
JIMT1 BREAST,0.869 ± 0.035,0.834 ± 0.024,0.893 ± 0.04,0.862 ± 0.033,0.971 ± 0.045,0.959 ± 0.038,0.517 ± 0.042,,1.02 ± 0.022,0.97 ± 0.014,,1.05 ± 0.046,,0.986 ± 0.071,0.634 ± 0.075,0.986 ± 0.028
